In the supplement of paper PMC13380429:

Columns and labels:
Settings in all cases: 72 h
[1] = tested on: HepG2; assay: relative viability EC50 (midpoint between 100% and the lowest measured viability); higher = less toxic
[2] = tested on: U2OS; assay: as above
[3] = tested on: Calu-3; assay: as above
[4] = tested on: Vero E6; assay: as above
[5] = tested on: Caco-2; assay: as above
[6] = tested on: HepG2; assay: drug sensitivity score (DSS) for viability; higher = more toxic; extreme values may be limits of the assay
[7] = tested on: U2OS; assay: as above
[8] = tested on: Calu-3; assay: as above
[9] = tested on: Vero E6; assay: as above
[10] = tested on: Caco-2; assay: as above
[11] = tested on: HepG2; assay: cell viability relative to DMSO; higher = less toxic
[12] = tested on: U2OS; assay: as above
[13] = tested on: Calu-3; assay: as above
[14] = tested on: Vero E6; assay: as above
[15] = tested on: Caco-2; assay: as above

Structure (SMILES)	relative viability EC50 [1]	relative viability EC50 [2]	relative viability EC50 [3]	relative viability EC50 [4]	relative viability EC50 [5]	drug sensitivity score [6]	drug sensitivity score [7]	drug sensitivity score [8]	drug sensitivity score [9]	drug sensitivity score [10]	cell viability ([11]; 1 nM)	cell viability ([11]; 10 nM)	cell viability ([11]; 100 nM)	cell viability ([11]; 1000 nM)	cell viability ([11]; 10000 nM)	cell viability ([12]; 1 nM)	cell viability ([12]; 10 nM)	cell viability ([12]; 100 nM)	cell viability ([12]; 1000 nM)	cell viability ([12]; 10000 nM)	cell viability ([13]; 1 nM)	cell viability ([13]; 10 nM)	cell viability ([13]; 100 nM)	cell viability ([13]; 1000 nM)	cell viability ([13]; 10000 nM)	cell viability ([14]; 1 nM)	cell viability ([14]; 10 nM)	cell viability ([14]; 100 nM)	cell viability ([14]; 1000 nM)	cell viability ([14]; 10000 nM)	cell viability ([15]; 1 nM)	cell viability ([15]; 10 nM)	cell viability ([15]; 100 nM)	cell viability ([15]; 1000 nM)	cell viability ([15]; 10000 nM)
CC(C)N1Cc2cc(S(C)(=O)=O)ccc2N(CCN2CC=C(c3c[nH]c4cc(F)ccc34)CC2)S1(=O)=O	> 10 µM	> 10 µM	> 10 µM	> 10 µM	> 10 µM	0	0	0	0	0	99.9%	107%	95.8%	105%	100%	99.9%	99.1%	103%	95.8%	95.2%	98.6%	99.3%	92.7%	107%	110%	89.6%	97.7%	94.1%	94.7%	97.6%	98.3%	98.8%	102%	91.2%	104%
CC(=O)c1ccc(S(=O)(=O)NC(=O)NC2CCCCC2)cc1 [acetohexamide]	> 10 µM	> 10 µM	> 10 µM	> 10 µM	> 10 µM	0	0	0	0	3.7	99.5%	103%	106%	113%	106%	95.1%	98%	96.6%	96.3%	96.9%	91.8%	112%	90.2%	107%	104%	92.7%	98.2%	97.1%	98.9%	110%	97.1%	85.8%	90.7%	75.4%	83.1%
O=C(O)c1cc2ccccc2s1 [BL-5583]	> 10 µM	> 10 µM	> 10 µM	> 10 µM	> 10 µM	0	0	0	0	0	112%	109%	97.4%	98.8%	110%	103%	105%	100%	100%	98%	98%	106%	106%	98.7%	141%	102%	95.7%	97.5%	101%	93%	97.7%	107%	102%	102%	100%
Cc1ccc2c(c1)c1c3n2CCNC3CCC1 (stereo not given) [pirlindole]	> 10 µM	> 10 µM	> 10 µM	> 10 µM	> 10 µM	0.3	0	0	0	0	100%	98%	99.9%	102%	82.4%	100%	102%	96.9%	103%	102%	98.1%	100%	98%	102%	99.1%	97.7%	100%	97.6%	101%	101%	90.9%	101%	97.9%	101%	104%
OCC(Br)(Br)Br [tribromoethanol]	> 10 µM	> 10 µM	> 10 µM	> 10 µM	> 10 µM	0.5	0	0	0	0	99.3%	102%	102%	97%	85.4%	95.3%	98.3%	96.7%	98.8%	101%	91.4%	95.9%	98.3%	106%	94.2%	106%	96.3%	108%	87.7%	99.9%	81.4%	116%	92.7%	98.8%	107%
O=C(OCCN1CCCCC1)c1c[nH]c2ccccc12	> 10 µM	> 10 µM	> 10 µM	> 10 µM	> 10 µM	0	0	0	0	0	102%	93.8%	98.2%	106%	94.4%	96.8%	104%	97.6%	102%	94.3%	106%	104%	97.7%	103%	91.3%	98.7%	95.6%	95.4%	95.8%	104%	99.3%	97.2%	95.3%	96.3%	99.4%
N#Cc1cc(NC(=O)C(=O)O)c(Cl)c(NC(=O)C(=O)O)c1 [lodoxamide]	> 10 µM	> 10 µM	> 10 µM	> 10 µM	> 10 µM	0	0	0	0	0	102%	107%	92.7%	93.3%	93.6%	104%	102%	97.2%	102%	98.1%	109%	100%	92.1%	96.4%	99.4%	101%	99.9%	98.6%	97.8%	93.8%	106%	119%	99.8%	118%	128%
Oc1cc(O)cc(O)c1 [phloroglucin]	> 10 µM	> 10 µM	> 10 µM	> 10 µM	> 10 µM	0	0	0	0	0	103%	104%	91.8%	99%	104%	101%	98.3%	98.7%	98.2%	98.7%	104%	105%	113%	90.1%	98.8%	101%	102%	98.6%	103%	101%	113%	91.5%	104%	91.6%	104%
c1ccc2c(c1)OC[C@H](CNCCCOc1ccc3c(c1)OCO3)O2 [osemozotan]	> 10 µM	> 10 µM	> 10 µM	> 10 µM	> 10 µM	0	0	0	0	0	99.1%	105%	112%	97%	106%	96.9%	99.2%	96.9%	101%	94.2%	94%	103%	109%	108%	95.9%	106%	104%	103%	85.3%	100%	90.5%	108%	101%	96.5%	114%
c1cc2c(cc1[C@H]1OC[C@H]3[C@@H]1CO[C@@H]3c1ccc3c(c1)OCO3)OCO2 [sesamin]	> 10 µM	> 10 µM	> 10 µM	> 10 µM	> 10 µM	0	0	0	0	0	105%	107%	102%	91.1%	106%	96.9%	100%	102%	104%	99.3%	109%	103%	102%	98.1%	90.1%	99.8%	103%	94.6%	99.3%	99.4%	93.7%	95%	98.4%	95.7%	89.2%
C=C1/C(=C\C=C2/CCC[C@]3(C)[C@@H]([C@H](C)/C=C/[C@H](C)C(C)C)CC[C@@H]23)C[C@@H](O)C[C@@H]1O [doxercalciferol]	> 10 µM	> 10 µM	> 10 µM	> 10 µM	> 10 µM	0	0	0	0	0	101%	94.8%	99.8%	96.4%	99.9%	92.2%	102%	94.9%	96.7%	100%	95.3%	102%	99.9%	95.8%	111%	97.7%	101%	97.1%	95.9%	106%	104%	103%	96.3%	98.2%	97.2%
COc1cc(C(=O)NS(=O)(=O)c2ccccc2C)ccc1Cc1cn(C)c2ccc(NC(=O)OC3CCCC3)cc12 [zafirlukast]	> 10 µM	> 10 µM	> 10 µM	> 10 µM	> 10 µM	0	0	0	0	0	104%	101%	109%	94.6%	96.6%	92.7%	98.4%	103%	105%	100%	96.9%	101%	97.2%	100%	110%	96.2%	92.5%	91.2%	94.2%	94.6%	92.3%	104%	105%	97.8%	99.2%
CC(C)CC(NC(=O)OCC1c2ccccc2-c2ccccc21)C(=O)O (stereo in doubt)	> 10 µM	> 10 µM	> 10 µM	> 10 µM	> 10 µM	0	0	0	0	0	90.3%	103%	90.1%	102%	97.8%	91%	95.3%	105%	99.7%	101%	89.2%	102%	107%	102%	92.8%	97.3%	102%	95.6%	94.5%	108%	85.2%	90.4%	104%	96.5%	98.2%
CSc1ccc(C(=O)c2[nH]c(=O)[nH]c2C)cc1 [enoximone]	> 10 µM	> 10 µM	> 10 µM	> 10 µM	> 10 µM	0	0	0	0	0	96.6%	95.8%	103%	82.5%	100%	99.2%	97.9%	101%	108%	105%	106%	101%	94.2%	96.7%	101%	99.6%	99.6%	86%	90.6%	94.9%	92.8%	87.2%	100%	111%	87%
